ChEMBL document CHEMBL1255340, “In vitro activities of the Rx-01 oxazolidinones against hospital and community pathogens” (2008)
Converted amounts (≈) assume the structure as drawn. “And” between values parts separate entries of the source, which are not always exact repeats. Identical values can stand only once.

Key:
Type in all cases: functional
Enterococcus faecium [1] = assay: Antimicrobial activity against Enterococcus faecium A9650
Enterococcus faecium [2] = assay: Antimicrobial activity against Enterococcus faecium A8948
Enterococcus faecium [3] = assay: Antimicrobial activity against Enterococcus faecium A9621 by broth microdilution method
Enterococcus faecium [4] = assay: Antimicrobial activity against Enterococcus faecium A8767
Streptococcus pneumoniae [5] = assay: Antimicrobial activity against Streptococcus pneumoniae PU1071099 harboring 65WR66 deletion in ribosomal protein L4 by broth microdilution method
Staphylococcus aureus [6] = assay: Antimicrobial activity against methicillin resistant Staphylococcus aureus 67-0
Staphylococcus aureus [7] = assay: Antimicrobial activity against methicillin-resistant Staphylococcus aureus BK 11118
Staphylococcus aureus [8] = assay: Antimicrobial activity against methicillin-resistant Staphylococcus aureus BK 11512
Enterococcus faecalis [9] = assay: Antimicrobial activity against vancomycin-resistant Enterococcus faecalis 03B1069
Streptococcus pneumoniae [10] = assay: Antimicrobial activity against Streptococcus pneumoniae 02J1258
Streptococcus pneumoniae [11] = assay: Antimicrobial activity against Streptococcus pneumoniae 02J1175
Haemophilus influenzae [12] = assay: Antimicrobial activity against Haemophilus influenzae 54A1100
Haemophilus influenzae [13] = assay: Antimicrobial activity against Haemophilus influenzae A1950
Staphylococcus aureus [14] = assay: Antimicrobial activity against Staphylococcus aureus A7820
Enterococcus faecium [15] = assay: Antimicrobial activity against Enterococcus faecium A6349
Streptococcus pneumoniae [16] = assay: Antimicrobial activity against Streptococcus pneumoniae 02J1258 assessed as log reduction in bacterial growth at 4 times MIC after 24 hrs by time-kill assay
Streptococcus pneumoniae [17] = assay: Antimicrobial activity against Streptococcus pneumoniae 02J1175 assessed as log reduction in bacterial growth at 4 times MIC after 24 hrs by time-kill assay
Haemophilus influenzae [18] = assay: Antimicrobial activity against Haemophilus influenzae 54A1100 assessed as log reduction in bacterial growth at 4 times MIC after 24 hrs by time-kill assay
Haemophilus influenzae [19] = assay: Antimicrobial activity against Haemophilus influenzae 54A1100 assessed as log reduction in bacterial growth at 8 times MIC after 24 hrs by time-kill assay
Streptococcus pneumoniae [20] = assay: Antimicrobial activity against Streptococcus pneumoniae 02J1258 assessed as log reduction in bacterial growth at 8 times MIC after 24 hrs by time-kill assay
Streptococcus pneumoniae [21] = assay: Antimicrobial activity against Streptococcus pneumoniae 02J1175 assessed as log reduction in bacterial growth at 8 times MIC after 24 hrs by time-kill assay
Haemophilus influenzae [22] = assay: Antimicrobial activity against Haemophilus influenzae A1950 assessed as log reduction in bacterial growth at 4 times MIC after 24 hrs by time-kill assay
Haemophilus influenzae [23] = assay: Antimicrobial activity against Haemophilus influenzae A1950 assessed as log reduction in bacterial growth at 8 times MIC after 24 hrs by time-kill assay
Staphylococcus aureus [24] = assay: Antimicrobial activity against methicillin-susceptible Staphylococcus aureus nosocomial isolate
Enterococcus faecalis [25] = assay: Antimicrobial activity against vancomycin-resistant Enterococcus faecalis nosocomial isolate
Streptococcus pneumoniae [26] = assay: Antimicrobial activity against Streptococcus pneumoniae harboring erm(B) gene by broth microdilution method; conditions: Streptococcus pneumoniae; read-out: MIC
Streptococcus pneumoniae [27] = assay: Antimicrobial activity against Streptococcus pneumoniae harboring erm(B) and mef(A) gene
Streptococcus pneumoniae [28] = assay: Antimicrobial activity against Streptococcus pneumoniae ribosomal mutant
Streptococcus pyogenes = assay: Antimicrobial activity against Streptococcus pyogenes
Moraxella catarrhalis = assay: Antimicrobial activity against Moraxella catarrhalis
Staphylococcus aureus [29] = assay: Antimicrobial activity against Staphylococcus aureus ATCC 29213
Staphylococcus aureus [30] = assay: Antimicrobial activity against Staphylococcus aureus A7819 harboring G2576U mutation in 23S rRNA
Staphylococcus aureus [31] = assay: Antimicrobial activity against Staphylococcus aureus A8833 harboring U2500A mutation in 23S rRNA
Staphylococcus aureus [32] = assay: Antimicrobial activity against Staphylococcus aureus A8831 harboring U2500A mutation in 23S rRNA
Staphylococcus aureus [33] = assay: Antimicrobial activity against Staphylococcus aureus A7817
Staphylococcus aureus [34] = assay: Antimicrobial activity against Staphylococcus aureus A8761
Staphylococcus aureus [35] = assay: Antimicrobial activity against Staphylococcus aureus A8727
Staphylococcus hominis = assay: Antimicrobial activity against Staphylococcus hominis A7828
[36] = system: Staphylococcus epidermidis; assay: Antimicrobial activity against Staphylococcus epidermidis A8934
Staphylococcus capitis = assay: Antimicrobial activity against Staphylococcus capitis A8935
Staphylococcus aureus [37] = assay: Antimicrobial activity against Staphylococcus aureus pL150
Staphylococcus aureus [38] = assay: Antimicrobial activity against Staphylococcus aureus pLXM1 harboring cfr gene
Enterococcus faecalis [39] = assay: Antimicrobial activity against Enterococcus faecalis ATCC 29212
Enterococcus faecalis [40] = assay: Antimicrobial activity against Enterococcus faecalis ATCC 29212-P5 harboring G2576U mutation in 23S rRNA
Enterococcus faecalis [41] = assay: Antimicrobial activity against Enterococcus faecalis A6350
Enterococcus faecalis [42] = assay: Antimicrobial activity against Enterococcus faecalis A6343
Enterococcus faecalis [43] = assay: Antimicrobial activity against Enterococcus faecalis A5962
Enterococcus faecalis [44] = assay: Antimicrobial activity against Enterococcus faecalis A7789
Enterococcus faecium [45] = assay: Antimicrobial activity against Enterococcus faecium A5959
Enterococcus faecium [46] = assay: Antimicrobial activity against Enterococcus faecium A5960
Enterococcus faecium [47] = assay: Antimicrobial activity against Enterococcus faecium A6345
Enterococcus faecium [48] = assay: Antimicrobial activity against Enterococcus faecium A6348 harboring G2576U mutation in 23S rRNA
Enterococcus faecium [49] = assay: Antimicrobial activity against Enterococcus faecium A6349 harboring G2576U mutation in 23S rRNA
Enterococcus faecium [50] = assay: Antimicrobial activity against Enterococcus faecium A8130
Metamycoplasma hominis = assay: Antimicrobial activity against Mycoplasma hominis isolated from human respiratory tract by broth microdilution method
Chlamydia trachomatis = assay: Antimicrobial activity against Chlamydia trachomatis isolated from human respiratory tract by broth microdilution method
Chlamydia pneumoniae = assay: Antimicrobial activity against Chlamydophila pneumoniae isolated from human respiratory tract by broth microdilution method

SMILES: CC(=O)NC[C@H]1CN(c2ccc(-c3ccc(CNCCCF)cc3)c(F)c2)C(=O)O1
- MIC (Enterococcus faecium [1]): 1 µg/mL (≈ 2.4 µM)
- MIC (Enterococcus faecium [2]): 0.5 µg/mL (≈ 1.2 µM)
- MIC (Enterococcus faecium [3]): 4 µg/mL (≈ 9.58 µM)
- MIC (Enterococcus faecium [4]): 2 µg/mL (≈ 4.79 µM)
- MIC (Streptococcus pneumoniae [5]): 0.5 µg/mL (≈ 1.2 µM)
- MIC (Staphylococcus aureus [6]): 1 µg/mL (≈ 2.4 µM)
- MIC (Staphylococcus aureus [7]): 1 µg/mL (≈ 2.4 µM)
- MIC (Staphylococcus aureus [8]): 2 µg/mL (≈ 4.79 µM)
- MIC (Enterococcus faecalis [9]): 0.5 µg/mL (≈ 1.2 µM)
- MIC (Streptococcus pneumoniae [10]): 0.25 µg/mL (≈ 0.599 µM)
- MIC (Streptococcus pneumoniae [11]): 0.125 µg/mL (≈ 0.299 µM)
- MIC (Haemophilus influenzae [12]): 2 µg/mL (≈ 4.79 µM)
- MIC (Haemophilus influenzae [13]): 4 µg/mL (≈ 9.58 µM)
- MIC (Staphylococcus aureus [14]): 16 µg/mL (≈ 38.3 µM)
- MIC (Enterococcus faecium [15]): 1 µg/mL (≈ 2.4 µM)
- FC (Streptococcus pneumoniae [16]): >3
- FC (Streptococcus pneumoniae [17]): >3
- FC (Haemophilus influenzae [18]): >3
- FC (Haemophilus influenzae [19]): >3
- FC (Streptococcus pneumoniae [20]): >3
- FC (Streptococcus pneumoniae [21]): >3
- FC (Haemophilus influenzae [22]): >3
- FC (Haemophilus influenzae [23]): >3
- MIC (Staphylococcus aureus [24]): 1 µg/mL (≈ 2.4 µM)
- MIC (Staphylococcus aureus [24]; Staphylococcus aureus, read-out: MIC): 0.5 µg/mL (≈ 1.2 µM)
- MIC (Enterococcus faecalis [25]): 0.5 µg/mL (≈ 1.2 µM)
- MIC (Enterococcus faecalis [25]; Enterococcus faecalis, read-out: MIC): ≤ 0.25 µg/mL
- MIC (Streptococcus pneumoniae [26]): ≤ 0.25 µg/mL
- MIC (Streptococcus pneumoniae [27]): ≤ 0.25 µg/mL
- MIC (Streptococcus pneumoniae [28]): ≤ 0.25 µg/mL
- MIC (Streptococcus pyogenes): 0.25 µg/mL (≈ 0.599 µM)
- MIC (Streptococcus pyogenes; Streptococcus pyogenes, read-out: MIC): 0.125 µg/mL (≈ 0.299 µM)
- MIC (Moraxella catarrhalis): 2 µg/mL (≈ 4.79 µM)
- MIC (Moraxella catarrhalis; Moraxella catarrhalis, read-out: MIC): 1 µg/mL (≈ 2.4 µM)
- MIC (Staphylococcus aureus [29]): 2 µg/mL (≈ 4.79 µM)
- MIC (Staphylococcus aureus [30]): 16 µg/mL (≈ 38.3 µM)
- MIC (Staphylococcus aureus [31]): 32 µg/mL (≈ 76.7 µM)
- MIC (Staphylococcus aureus [32]): 64 µg/mL (≈ 153 µM)
- MIC (Staphylococcus aureus [33]): 16 µg/mL (≈ 38.3 µM)
- MIC (Staphylococcus aureus [34]): 8 µg/mL (≈ 19.2 µM)
- MIC (Staphylococcus aureus [35]): 4 µg/mL (≈ 9.58 µM)
- MIC (Staphylococcus hominis): 4 µg/mL (≈ 9.58 µM)
- MIC [36]: 4 µg/mL (≈ 9.58 µM)
- MIC (Staphylococcus capitis): 1 µg/mL (≈ 2.4 µM)
- MIC (Staphylococcus aureus [37]): 0.5 µg/mL (≈ 1.2 µM)
- MIC (Staphylococcus aureus [38]): 1 µg/mL (≈ 2.4 µM)
- MIC (Enterococcus faecalis [39]): 1 µg/mL (≈ 2.4 µM)
- MIC (Enterococcus faecalis [40]): 2 µg/mL (≈ 4.79 µM)
- MIC (Enterococcus faecalis [41]): 1 µg/mL (≈ 2.4 µM)
- MIC (Enterococcus faecalis [42]): 2 µg/mL (≈ 4.79 µM)
- MIC (Enterococcus faecalis [43]): 4 µg/mL (≈ 9.58 µM)
- MIC (Enterococcus faecalis [44]): 4 µg/mL (≈ 9.58 µM)
- MIC (Enterococcus faecium [45]): 4 µg/mL (≈ 9.58 µM)
- MIC (Enterococcus faecium [46]): 4 µg/mL (≈ 9.58 µM)
- MIC (Enterococcus faecium [47]): 4 µg/mL (≈ 9.58 µM)
- MIC (Enterococcus faecium [48]): 4 µg/mL (≈ 9.58 µM)
- MIC (Enterococcus faecium [49]): 1 µg/mL (≈ 2.4 µM)
- MIC (Enterococcus faecium [50]): 2 µg/mL (≈ 4.79 µM)

SMILES: CC[C@H]1OC(=O)[C@H](C)[C@@H](O[C@H]2C[C@@](C)(OC)[C@@H](O)[C@H](C)O2)[C@H](C)[C@@H](O[C@@H]2O[C@H](C)C[C@H](N(C)C)[C@H]2O)[C@](C)(O)C[C@@H](C)C(=O)[C@H](C)[C@@H](O)[C@]1(C)O [ERYTHROMYCIN]
- MIC (Metamycoplasma hominis): 16 µg/mL and 32 µg/mL
- MIC (Chlamydia trachomatis): 0.12 µg/mL and 0.25 µg/mL
- MIC (Chlamydia pneumoniae): 0.5 µg/mL (≈ 0.681 µM)
